Measurements: article PMC9797592, “TJ-M2010-5, a novel CNS drug candidate, attenuates acute cerebral ischemia-reperfusion injury through the MyD88/NF-κB and ERK pathway” (Frontiers in Pharmacology, 2022)

Legend:
NF-κB p65 = NF-κB p65 nuclear translocation in LPS-stimulated BV-2 cells, immunofluorescence; assay type: cell-based; settings: 12 h after LPS stimulation
Protocol: BV-2 microglial and SH-SY5Y cells were cultured as previously described ([Zhao et al., 2020]). A lipopolysaccharide (LPS)-stimulated BV-2 cell model was established to mimic severe neuroinflammation induced by multiple inflammatory mediators after reperfusion ([Li et al., 2021]). BV-2 cells were pretreated with different concentrations of TJ-5 for 2 h before LPS (1 μg/ml) stimulation (#L2880, Sigma, United States). […] In addition, ST2825, a recognized MyD88 inhibitor, was used as positive control group.
For BV-2 cells immunofluorescence staining, the cells were fixed with 4% paraformaldehyde for 10 min and permeabilized with 0.5% Triton X-100 for 10 min. After blocking with goat serum, the cells were sequentially incubated with the primary antibody, secondary antibody, and Hoechst in sequence. Images were captured using a confocal microscope. The fluorescence intensity was analyzed using ImageJ software.

[1] = test system: MyD88/NF-κB and ERK signaling pathway; assay: Simple Western / RT-qPCR of MyD88/NF-κB and ERK pathway in the brain of CIRI mice; assay type: in vivo, C57BL/6 mice; settings: TJ-5 15 mg/kg
Protocol: Total mRNA was extracted from the brain cortex using TRIzol reagent and reverse-transcribed into cDNA using the PrimeScript™ RT reagent kit (Takara, Japan), following the manufacturer’s instructions. RT-qPCR was performed using SYBR Green Real-time PCR Master Mix (Takara, Japan) with the Step One System (Life Technologies). The results were expressed as fold change from the untreated control and analyzed using the 2^−ΔΔCt method. The primers were as follows (5′–3′): MyD88 forward: TTTATCTGCTACTGCCCCAACG, reverse: GCGGCGACACCTTTTCTCA; TLR4 forward: ATGCTGCAACTGATGTTCCTTC, reverse: GATGTTAGACCTTTCTTCCTCCC; GAPDH forward: TGTTCCTACCCCCAATGTGTCC, reverse: GGAGTTGCTGTTGAAGTCGCAG; TNF-α forward: ATGGCCTCCCTCTCATCAGT, reverse: TGGTTTGCTACGACGTGGG; IL-6 forward: AGTGGCTAAGGACCAAGAC, reverse: ATAACGCACTAGGTTTGCCGA; iNOS forward: ATTCACAGCTCATCCGGTACG, reverse: GGATCTTGACCATCAGCTTGC; IL-1β forward: GCACTACAGGCTCCGAGATGAA, reverse: GTCGTTGCTTGGTTCTCCTTGT.
Here, Simple Western, a novel immunoassay to detect proteins in the brain, was used, as previously described ([Kannan et al., 2018]; [Nanki et al., 2018]). Briefly, the prepared proteins were diluted to a concentration of 0.5 mg/ml using a sample preparation kit (Protein Simple, United States). Then, according to the manufacturer’s instructions, the prepared reagents were added to the detection plate sequentially for processing in an automated capillary electrophoresis system (Simple Western system). The primary antibodies recognized HMGB1, TLR4, MyD88, NeuN, P-ERK, P-IκBα, IκBα, NF-κB p65 (CST, 1:50), Histone H3 (ABclonal, 1:50), and GAPDH (ABclonal, 1:1000). Compass for SW software v4.0.0 (Protein Simple, United States) was used to quantitatively analyze the signal intensity (area) of the protein.

[2] = test system: OGD/R-induced SH-SY5Y cells; assay: OGD/R-induced SH-SY5Y cell apoptosis, Annexin V/PI flow cytometry; assay type: cell-based; settings: OGD 4 h / R 24 h with TJ-5
Protocol: The oxygen glucose deprivation/reoxygenation (OGD/R)-induced SH-SY5Y cell model was established to mimic CIRI as previously described ([Dong et al., 2021]). Briefly, SH-SY5Y cells were cultured in glucose-free Dulbecco’s Modified Eagle Medium, and the flasks were placed inside an incubator (1% O2, 94% N2, 5% CO2) for 4 h. OGD cells were then incubated in standard culture conditions with or without TJ-5 for 24 h of reperfusion. OGD 4 h/R 24 h SH-SY5Y cells were harvested, and the Annexin V/PI Apoptosis Kit (Multi- Science Biotech, China) was used to detect apoptosis by flow cytometry.

CIRI mice = assay: Immunofluorescence staining (NeuN, TUNEL, Iba-1) of brain slices of CIRI mice; assay type: in vivo, C57BL/6 mice
Protocol: As mentioned previously, immunofluorescence staining was performed on paraffin-embedded brain slices ([Ye et al., 2020]). After standard histological procedures, the slices were treated with the TUNEL (terminal deoxynucleotidyl transferase dUTP nick end labeling) reaction mixture to detect apoptosis according to the manufacturer’s protocol (Roche, Germany). Furthermore, the slices were used for immunofluorescence with rabbit anti-NeuN antibody (1:300, CST) and rabbit anti-Iba-1 antibody (1:500, CST). After incubating overnight at 4°C, goat anti-rabbit IgG (1:1000) secondary antibodies were applied, and the brain slices were incubated for 2 h at room temperature. Finally, the slices were washed and labeled with 4′,6-diamidino-2-phenylindole for 10 min at room temperature. Images were captured using a fluorescence microscope.

Structure (SMILES): O=C(CCN1CCN(Cc2ccccc2)CC1)Nc1nc(-c2ccccc2)cs1 [TJ-5]
- LPS-induced NF-κB p65 nuclear translocation (NF-κB p65): significantly prevented
- expression of HMGB1, TLR4, and MyD88 in the ischemic hemisphere [1]: downregulated
- phosphorylation of ERK in the ischemic hemisphere [1]: inhibited
- phosphorylation of IκBα and nuclear translocation of NF-κB p65 in the ischemic hemisphere [1]: reduced
- NeuN protein levels in the brain ([1]; I/R-induced decrease): attenuated this decrease
- apoptosis of OGD/R-induced SH-SY5Y cells [2]: significantly reduced apoptosis
- apoptosis (TUNEL) in whole brain and ischemic penumbra of the cortex (CIRI mice; TJ-5 15 mg/kg i.v. after 1 h ischemia): significantly reduced
- number of neurons (NeuN) in the injured hemisphere (CIRI mice; TJ-5 15 mg/kg vs vehicle group): significantly increased
- number of Iba-1 positive cells in cortex (CIRI mice; TJ-5 15 mg/kg, vs I/R group): significantly decreased
